# Experimental data published in patent US10150728B2, “Alkylene derivatives” (Shionogi & Co., Ltd., priority 2013, dated 2018).
# Target: recombinant human ACC2 (Homo sapiens (Human), UniProt O00763)
# Test: Measurement of inhibitory activity on human ACC2 (MALDI-TOF MS, acetyl CoA to malonyl CoA conversion)
# Type: biochemical
# Conditions: Table 154
# How it was run: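 His-tagged human ACC2 (residues 27–2458) from baculovirus-infected Sf-9 cells was preincubated 1 h in pH 7.4 HEPES-KOH buffer with MgCl2, 6-10 mM potassium citrate, glutathione and BSA. Substrate solution held 1 mM ATP, 0.8 mM acetyl CoA and 25-50 mM bicarbonate. After 1–3 h at room temperature, malonyl CoA/(malonyl+acetyl CoA) was read by negative-mode MALDI-TOF MS; citrate, bicarbonate and time varied by enzyme lot.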
# Sequence of recombinant human ACC2 (O00763 27-2458): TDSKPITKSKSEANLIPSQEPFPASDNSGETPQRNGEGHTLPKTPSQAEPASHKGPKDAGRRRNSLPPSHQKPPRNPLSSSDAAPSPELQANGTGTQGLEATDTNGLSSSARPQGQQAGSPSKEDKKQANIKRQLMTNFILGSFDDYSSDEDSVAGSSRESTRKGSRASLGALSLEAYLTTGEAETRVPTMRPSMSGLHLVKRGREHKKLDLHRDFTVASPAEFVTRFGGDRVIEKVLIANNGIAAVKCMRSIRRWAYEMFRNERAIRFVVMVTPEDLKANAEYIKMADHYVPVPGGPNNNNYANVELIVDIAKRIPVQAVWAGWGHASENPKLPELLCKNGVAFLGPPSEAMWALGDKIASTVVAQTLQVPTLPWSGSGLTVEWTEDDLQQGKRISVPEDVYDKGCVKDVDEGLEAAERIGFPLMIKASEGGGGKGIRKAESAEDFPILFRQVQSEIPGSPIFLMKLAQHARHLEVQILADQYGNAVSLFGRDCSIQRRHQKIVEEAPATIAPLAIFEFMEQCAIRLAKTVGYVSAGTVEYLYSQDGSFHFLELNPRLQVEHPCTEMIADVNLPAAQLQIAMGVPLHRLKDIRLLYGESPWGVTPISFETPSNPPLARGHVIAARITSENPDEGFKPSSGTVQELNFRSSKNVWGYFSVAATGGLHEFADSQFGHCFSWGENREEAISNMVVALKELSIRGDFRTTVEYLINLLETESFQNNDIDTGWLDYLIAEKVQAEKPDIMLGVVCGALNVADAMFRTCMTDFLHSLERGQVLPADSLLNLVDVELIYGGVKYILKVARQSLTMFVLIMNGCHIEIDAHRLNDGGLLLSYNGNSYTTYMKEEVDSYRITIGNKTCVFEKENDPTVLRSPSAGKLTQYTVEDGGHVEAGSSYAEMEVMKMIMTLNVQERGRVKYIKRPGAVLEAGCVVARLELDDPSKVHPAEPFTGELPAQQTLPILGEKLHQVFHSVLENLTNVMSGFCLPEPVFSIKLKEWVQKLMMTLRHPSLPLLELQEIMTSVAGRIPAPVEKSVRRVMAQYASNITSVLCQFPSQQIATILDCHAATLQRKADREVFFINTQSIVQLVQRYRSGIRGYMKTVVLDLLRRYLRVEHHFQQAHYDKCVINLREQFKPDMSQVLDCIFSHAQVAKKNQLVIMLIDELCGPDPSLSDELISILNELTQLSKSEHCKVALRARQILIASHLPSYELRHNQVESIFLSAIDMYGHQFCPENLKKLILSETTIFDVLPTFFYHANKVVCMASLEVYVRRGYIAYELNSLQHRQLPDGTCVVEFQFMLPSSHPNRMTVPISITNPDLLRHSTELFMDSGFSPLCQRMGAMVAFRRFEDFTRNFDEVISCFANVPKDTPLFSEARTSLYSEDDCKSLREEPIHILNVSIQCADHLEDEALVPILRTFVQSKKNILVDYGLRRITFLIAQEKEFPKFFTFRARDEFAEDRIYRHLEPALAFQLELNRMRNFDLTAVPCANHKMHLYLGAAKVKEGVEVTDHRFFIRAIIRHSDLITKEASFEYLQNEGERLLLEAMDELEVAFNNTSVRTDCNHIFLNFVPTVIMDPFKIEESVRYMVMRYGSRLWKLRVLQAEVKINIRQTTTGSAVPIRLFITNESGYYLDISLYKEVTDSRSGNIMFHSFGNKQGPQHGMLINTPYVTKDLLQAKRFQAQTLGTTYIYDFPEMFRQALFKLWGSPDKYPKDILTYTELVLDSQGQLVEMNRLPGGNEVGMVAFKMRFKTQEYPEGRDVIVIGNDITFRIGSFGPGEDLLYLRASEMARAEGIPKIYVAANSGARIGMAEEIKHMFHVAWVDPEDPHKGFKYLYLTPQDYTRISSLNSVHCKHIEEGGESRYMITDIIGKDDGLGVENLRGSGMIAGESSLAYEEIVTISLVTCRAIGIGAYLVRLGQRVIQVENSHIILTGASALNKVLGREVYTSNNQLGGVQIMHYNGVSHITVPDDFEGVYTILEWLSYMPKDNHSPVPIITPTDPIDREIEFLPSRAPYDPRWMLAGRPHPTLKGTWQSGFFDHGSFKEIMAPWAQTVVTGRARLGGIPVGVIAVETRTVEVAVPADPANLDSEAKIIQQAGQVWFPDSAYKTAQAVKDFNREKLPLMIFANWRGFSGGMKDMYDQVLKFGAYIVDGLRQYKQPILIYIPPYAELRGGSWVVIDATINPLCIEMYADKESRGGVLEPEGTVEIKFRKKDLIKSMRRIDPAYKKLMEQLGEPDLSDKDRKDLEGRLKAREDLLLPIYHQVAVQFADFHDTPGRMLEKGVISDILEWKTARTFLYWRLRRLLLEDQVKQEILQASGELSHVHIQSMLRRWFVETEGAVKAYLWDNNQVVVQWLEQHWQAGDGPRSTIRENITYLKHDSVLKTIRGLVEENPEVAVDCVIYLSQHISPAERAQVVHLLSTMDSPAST
row,IC50,Compound
1,168 nM,CCOc1nc2ccc(O[C@H]3C[C@@H](OC[C@H](C)NC(C)=O)C3)c(Cl)c2s1 [Compound I-077]
2,45 nM,CC(=O)N[C@@H](C)COc1cnc(Oc2ccc(C(=O)Nc3ccc(F)cc3)c(F)c2F)cn1 [Compound I-090]
3,28 nM,CC(=O)N[C@@H](C)COc1cnc(Oc2ccc3nc(C(C)(F)F)sc3c2Cl)cn1 [Compound I-028]
4,44 nM,CC(=O)N[C@@H](C)CO[C@H]1CC[C@H](Oc2ncc(-c3ccccc3)cc2F)CC1 [Compound I-102]

# Same assay, conditions: Tables 155-159
row,Compound,IC50
1,CC(=O)N[C@@H](C)CO[C@H]1C[C@H](COc2ccc3nc(OCC(C)(C)C#N)sc3n2)C1 [Compound I-302],52 nM
2,CC(=O)N[C@@H](C)CO[C@H]1C[C@H](COc2ccc3nc(N4CC(F)(F)C(F)(F)C4)sc3n2)C1 [Compound I-254],20 nM
3,CC(=O)N[C@@H](C)CO[C@H]1CC[C@H](Oc2nc3c(F)cc(OC4CCC4)c(F)c3n2C)CC1 [Compound I-639],2 nM
4,CC(=O)N[C@@H](C)CO[C@H]1C[C@H](COc2ccc3nc(OC4COC4)sc3n2)C1 [Compound I-307],43 nM
5,CC(=O)N[C@@H](C)CO[C@H]1C[C@H](COc2ccc3nc(OC4CCSC4)sc3n2)C1 (stereo partly shown) [Compound I-249],8 nM
6,COC(=O)N[C@@H](C)CO[C@H]1CC[C@H](Oc2nc3c(F)cc(OCC(F)F)c(F)c3n2C)CC1 [Compound I-672],30 nM
7,CC(=O)N[C@@H](C)[C@H](C)O[C@H]1CC[C@H](Oc2nc3cnc(OCC(F)F)c(Cl)c3n2C)CC1 [Compound I-675],18 nM
8,CC(=O)N[C@@H](C)CO[C@H]1C[C@H](COc2ccc3nc(OC4CCCCC4)sc3n2)C1 [Compound I-244],7 nM
9,CCCOc1nc2cc(F)c(O[C@H]3CC[C@H](OC[C@H](C)NC(C)=O)CC3)nc2n1C [Compound I-517],14 nM
10,CC(=O)N[C@@H](C)CO[C@H]1CC[C@H](Oc2ncc3nc(N4CC(F)(F)C4)sc3c2F)CC1 [Compound I-241],173 nM
11,CC(=O)N[C@@H](C)CO[C@H]1C[C@H](Oc2nccc3c(OCc4ccccc4)nccc23)C1 [Compound I-445],14 nM
12,CC(=O)N[C@@H](C)CO[C@H]1CC[C@H](Oc2nc3cnc(OC(C)C)c(Cl)c3n2C)CC1 [Compound I-647],6 nM
13,CC(=O)N[C@@H](C)CO[C@H]1CC[C@H](Oc2nc3c(C#N)cc(OC4CC4)c(F)c3n2C)CC1 [Compound I-617],9 nM
14,CC(=O)N[C@@H](C)CO[C@H]1CC[C@H](Oc2ccc3nc(N4CC(C)(C)C4)sc3c2F)CC1 [Compound I-167],59 nM
15,CC(=O)N[C@@H](C)CO[C@H]1CC[C@H](Oc2ncc(-c3ncc(F)cn3)cc2F)CC1 [Compound I-521],20 nM
16,CCOc1nc2ccc(O[C@H]3CC[C@H](OC[C@H](C)NC(C)=O)CC3)nc2n1C [Compound I-491],51 nM
17,CC(=O)N[C@@H](C)CO[C@H]1C[C@H](COc2ccc3nc(O[C@H]4C[C@@H](O)C4)sc3n2)C1 [Compound I-294],300 nM
18,CC(=O)N[C@@H](C)CO[C@H]1C[C@H](COc2ccc3nc(OCC4CC4(F)F)n(C)c3n2)C1 (stereo partly shown) [Compound I-477],247 nM
19,CC(=O)N[C@@H](C)CO[C@H]1C[C@H](COc2ccc3nc(C(C)(C)O)sc3c2)C1 [Compound I-148],404 nM

row,Compound,IC50
1,CCOc1nc2ccc(O[C@H]3CC[C@H](OC[C@H](C)NC(C)=O)CC3)cc2s1 [Compound I-177],6 nM
2,CC(=O)N[C@@H](C)CO[C@H]1CC[C@H](Oc2ccc3nc(OC4(C)CC4)sc3c2F)CC1 [Compound I-125],29 nM
3,CC(=O)N[C@@H](C)CO[C@H]1CC[C@H](Oc2ccc3nc(C4(F)CC4)sc3c2F)CC1 [Compound I-117],7 nM
4,CC(=O)N[C@@H](C)CO[C@H]1CC[C@H](Oc2nc3ccc(OCC(F)F)nc3s2)CC1 [Compound I-553],196 nM
5,CCc1cnc(-c2cnc(O[C@H]3CC[C@H](OC[C@H](C)NC(C)=O)CC3)c(F)c2)nc1 [Compound I-533],102 nM
6,C[C@@H](CO[C@H]1CC[C@H](Oc2nc3c(F)cc(OCC(F)F)c(F)c3n2C)CC1)NC(=O)CC#N [Compound I-714],44 nM
7,CCOc1ccc2nc(O[C@H]3CC[C@H](OC[C@H](C)NC(C)=O)CC3)n(C)c2c1 [Compound I-559],43 nM
8,CC(=O)N[C@@H](C)CO[C@H]1CC[C@H](Oc2cc3sc(OCC4CC4)nc3cn2)CC1 [Compound I-183],14 nM
9,CCOc1nc2ccc(OC[C@]3(F)C[C@@H](OC[C@H](C)NC(C)=O)C3)c(F)c2s1 [Compound I-115],12 nM
10,CC(=O)N[C@@H](C)CO[C@H]1CC[C@H](Oc2ccc3nc(OCC(C)(C)OC4CCCCO4)sc3c2F)CC1 (stereo partly shown) [Compound I-131],334 nM
11,CC(=O)N[C@@H](C)CO[C@H]1CC[C@H](Oc2nc3cnc(OC4(C)CC4)c(Cl)c3n2C)CC1 [Compound I-664],11 nM
12,CCOc1ccc2nc(O[C@H]3CC[C@H](OC[C@H](C)NC(C)=O)CC3)n(C)c2c1C1CC1 [Compound I-735],677 nM
13,CC(=O)N[C@@H](C)CC[C@H]1OC[C@H](Oc2nc3c(F)cc(OCC(F)F)c(Cl)c3n2C)CO1 [Compound I-748],5 nM
14,CC(=O)N[C@@H](C)CO[C@H]1CC[C@H](Oc2cc3sc(O[C@H]4CCOC4)nc3cn2)CC1 [Compound I-259],86 nM
15,CC(=O)N[C@@H](C)CO[C@H]1CC[C@H](Oc2cc(C)c3nc(Oc4ccc(F)cc4)n(C)c3n2)CC1 [Compound I-508],81 nM
16,CC(=O)N[C@@H](C)CO[C@H]1C[C@H](COc2ccc3nc(O[C@H]4C[C@@H](F)C4)sc3n2)C1 [Compound I-296],6 nM
17,CC(=O)N[C@@H](C)CO[C@H]1CC[C@H](Oc2nc3cnc(OC(C)C)cc3n2C)CC1 [Compound I-607],110 nM
18,CCOc1c(F)cc2c(nc(O[C@H]3CC[C@H](OC[C@H](C)NC(C)=O)CC3)n2C)c1F [Compound I-685],170 nM

# Further lines, results first:
row,IC50,Compound
1,159 nM,CC(=O)N[C@@H](C)CO[C@H]1C[C@H](COc2ncnc3c2ccn3C(C)C)C1 [Compound I-471]
2,106 nM,CC(=O)N[C@@H](C)CO[C@H]1C[C@H](COc2nccc(-c3ncc(F)cn3)c2F)C1 [Compound I-311]
3,6 nM,CC(=O)N[C@@H](C)CO[C@H]1C[C@H](COc2ccc3nc(OCC4CC4)sc3n2)C1 [Compound I-308]
4,16 nM,CC(=O)N[C@@H](C)CO[C@H]1C[C@H](COc2ncnc3c2ccn3Cc2ccc(F)cc2)C1 [Compound I-474]
5,26 nM,CC(=O)N[C@@H](C)CO[C@H]1C[C@H](COc2ncnc3c2ccn3Cc2ccccc2F)C1 [Compound I-472]
6,43 nM,CC(=O)N[C@@H](C)CO[C@H]1C[C@H](COc2ncnc(OCc3ccc(C)cn3)c2Cl)C1 [Compound I-403]
7,22 nM,CC(=O)N[C@@H](C)CO[C@H]1C[C@H](COc2nccc3c2ccn3CC2CC2)C1 [Compound I-352]
8,34 nM,CC(=O)N[C@@H](C)CO[C@H]1C[C@H](COc2nccc(-c3ccc(F)cc3)c2Cl)C1 [Compound I-310]
9,8 nM,CC(=O)N[C@@H](C)CO[C@H]1C[C@H](COc2ncnc(OCc3ccccc3)c2F)C1 [Compound I-383]
10,198 nM,CC(=O)N[C@@H](C)CO[C@H]1C[C@H](COc2nccc(OCC3(C#N)CC3)c2Cl)C1 [Compound I-371]
11,37 nM,CC(=O)N[C@@H](C)CO[C@H]1C[C@H](COc2nccc(N3CCCC3)c2Cl)C1 [Compound I-325]
12,66 nM,CC(=O)N[C@@H](C)CO[C@H]1C[C@H](COc2ncnc(OCC3CC3(F)F)c2Cl)C1 (stereo partly shown) [Compound I-356]
13,24 nM,CC(=O)N[C@@H](C)CO[C@H]1C[C@H](COc2ncnc(OCC3CC3)c2C)C1 [Compound I-421]
14,109 nM,CC(=O)N[C@@H](C)CO[C@H]1C[C@H](COc2ncnc(C3=CCCCC3)c2C)C1 [Compound I-419]
15,364 nM,CC(=O)N[C@@H](C)CO[C@H]1C[C@H](COc2ncnc(OCc3cccc(Cl)n3)c2Cl)C1 [Compound I-384]
16,155 nM,CC(=O)N[C@@H](C)CO[C@H]1C[C@H](COc2nccc3c2cnn3CC2CC2)C1 [Compound I-381]
17,179 nM,CC(=O)N[C@@H](C)CO[C@H]1C[C@H](COc2nccc3cc(F)ccc23)C1 [Compound I-334]
18,13 nM,CC(=O)N[C@@H](C)CO[C@H]1C[C@H](COc2ncnc(NCc3ccc(Cl)cc3)c2Cl)C1 [Compound I-344]
19,160 nM,CC(=O)N[C@@H](C)CO[C@H]1C[C@H](COc2nccc3c2cnn3CC2CC2(F)F)C1 (stereo partly shown) [Compound I-465]
20,11 nM,CC(=O)N[C@@H](C)CO[C@H]1C[C@H](COc2ncnc(OCc3ccc(F)cn3)c2Cl)C1 [Compound I-354]
21,28 nM,CC(=O)N[C@@H](C)CO[C@H]1C[C@H](COc2nc3sc(OCC(F)F)nc3cc2Cl)C1 [Compound I-213]
22,8 nM,CC(=O)N[C@@H](C)CO[C@H]1C[C@H](COc2ncnc(OCc3ccc(Cl)cn3)c2Cl)C1 [Compound I-396]
23,11 nM,CC(=O)N[C@@H](C)CO[C@H]1C[C@H](COc2ncnc(OCc3ncc(Cl)cn3)c2Cl)C1 [Compound I-353]
24,84 nM,CC(=O)N[C@@H](C)CO[C@H]1C[C@H](COc2ccc3nc(C(C)C)sc3c2F)C1 [Compound I-127]
25,19 nM,CC(=O)N[C@@H](C)CO[C@H]1C[C@H](COc2nccc(N3CCCC3)c2F)C1 [Compound I-358]
26,31 nM,CC(=O)N[C@@H](C)CO[C@H]1C[C@H](COc2nccc(OC3C[C@@H]4CC[C@@H]3C4)c2Cl)C1 (stereo partly shown) [Compound I-366]
27,563 nM,CCOc1nc2ccc(OC[C@H]3C[C@H](OC[C@H](C)NC(C)=O)C3)nc2n1CC [Compound I-479]
28,87 nM,CC(=O)N[C@@H](C)CO[C@H]1C[C@H](COc2ncnc(OCc3ccc(C(F)(F)F)nc3)c2Cl)C1 [Compound I-351]
29,6 nM,CC(=O)N[C@@H](C)CO[C@H]1C[C@H](COc2ccc3nc(OCC(F)(F)F)sc3n2)C1 [Compound I-170]
